Reference: patent US11702404B2, “GLP-1R modulating compounds” (priority 2019, dated 2023)

Legend:
[1] = target: GLP-1R (Homo sapiens, UniProt P43220); assay: GLP-1R activation: cAMP increase in CHO cells stably expressing GLP-1R; format: cell-based; conditions: cAMP increase, CHO cells stably expressing GLP-1R, 10 point dose response, 30 minutes incubation; read-out: EC50
[2] = Microsomal stability, human liver microsomes (predicted hepatic clearance); conditions: predicted from in vitro microsomal stability data

GLP-1R, sequence (P43220 24-463): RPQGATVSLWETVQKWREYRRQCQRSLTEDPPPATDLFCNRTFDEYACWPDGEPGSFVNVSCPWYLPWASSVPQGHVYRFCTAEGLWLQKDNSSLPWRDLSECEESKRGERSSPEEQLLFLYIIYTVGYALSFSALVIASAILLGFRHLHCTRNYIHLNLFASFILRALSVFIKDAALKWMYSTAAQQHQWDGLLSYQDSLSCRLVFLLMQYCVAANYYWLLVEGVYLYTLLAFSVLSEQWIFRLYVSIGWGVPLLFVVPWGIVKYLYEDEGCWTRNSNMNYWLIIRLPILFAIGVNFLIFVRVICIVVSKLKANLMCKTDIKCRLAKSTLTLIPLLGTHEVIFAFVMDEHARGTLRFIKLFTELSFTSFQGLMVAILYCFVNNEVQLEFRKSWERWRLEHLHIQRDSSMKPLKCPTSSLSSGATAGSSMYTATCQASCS

Q: Which EC50 [1] does the source give for N#Cc1ccc(COc2cccc(-c3cc(F)c(Cc4nc5ccc(C(=O)O)cc5n4Cc4ccon4)c(F)c3)n2)c(F)c1 [Example 594, 2-(4-(6-((4-cyano-2-fluorobenzyl)oxy)pyridin-2-yl)-2,6-difluorobenzyl)-1-(isoxazol-3-ylmethyl)-1H-benzo[d]imidazole-6-carboxylic acid] here?
A: 0.77 nM

Q: What about the “Predicted Hepatic Clearance (Pred. Cl.)” value [2] of the same molecule?
A: 4.33 mL/min/kg

Q: For COCCn1c(Cc2ccc(-c3cc(C#N)cc(OCc4ccc(C#N)cc4F)n3)cc2F)nc2ccc(C(=O)O)cc21 [Example 85, 2-(4-(4-cyano-6-((4-cyano-2-fluorobenzyl)oxy)pyridin-2-yl)-2-fluorobenzyl)-1-(2-methoxyethyl)-1H-benzo[d]imidazole-6-carboxylic acid], which EC50 [1] is on record?
A: 4.9 nM

Q: What about the “Predicted Hepatic Clearance (Pred. Cl.)” value [2] of the same molecule?
A: 3.67 mL/min/kg

Q: Which EC50 [1] does the source give for N#Cc1ccc(COc2cccc(-c3ccc(Cc4nc5ccc(C(=O)O)cc5n4CCOC(F)(F)F)c(F)c3)n2)c(F)c1 [Example 323, 2-(4-(6-((4-cyano-2-fluorobenzyl)oxy)pyridin-2-yl)-2-fluorobenzyl)-1-(2-(trifluoromethoxy)ethyl)-1H-benzo[d]imidazole-6-carboxylic acid] here?
A: 27.5 nM

Q: And the “Predicted Hepatic Clearance (Pred. Cl.)” value [2]?
A: 4.33 mL/min/kg

Q: With COCCn1c(Cc2cc(F)c(-c3cccc(OCc4ccc(CC#N)cc4)n3)cc2F)nc2ccc(C(=O)O)cc21 [Example 817] as the molecule, how does the EC50 [1] read?
A: 10.3 nM

Q: And the “Predicted Hepatic Clearance (Pred. Cl.)” value [2]?
A: 9 mL/min/kg

Q: For COCCn1c(Cc2ccc(-c3cccc(OCc4ccc(C#N)cc4F)n3)cc2F)nc2cccc(C(=O)O)c21 [Example 201, 2-(4-(6-((4-cyano-2-fluorobenzyl)oxy)pyridin-2-yl)-2-fluorobenzyl)-1-(2-methoxyethyl)-1H-benzo[d]imidazole-7-carboxylic acid], which EC50 [1] is on record?
A: 4420 nM

Q: And the “Predicted Hepatic Clearance (Pred. Cl.)” value [2]?
A: 3 mL/min/kg

Q: With COCCn1c(Cc2cc(F)c(-c3cccc(OCc4ccc(C(F)F)cc4F)n3)cc2F)nc2ccc(C(=O)O)cc21 [Example 544, 2-(4-(6-((4-(difluoromethyl)-2-fluorobenzyl)oxy)pyridin-2-yl)-2,5-difluorobenzyl)-1-(2-methoxyethyl)-1H-benzo[d]imidazole-6-carboxylic acid] as the molecule, how does the EC50 [1] read?
A: 0.96 nM

Q: What about the “Predicted Hepatic Clearance (Pred. Cl.)” value [2] of the same molecule?
A: 3.17 mL/min/kg

Q: Which EC50 [1] does the source give for COCCn1c(C2CCOc3cc(-c4cccc(OCc5ccc(C#N)cc5F)n4)ccc32)nc2ccc(C(=O)O)cc21 (stereo not shown) [Example 41, 2-(7-(6-((4-cyano-2-fluorobenzyl)oxy)pyridin-2-yl)chroman-4-yl)-1-(2-methoxyethyl)-1H-benzo[d]imidazole-carboxylic acid] here?
A: 1460 nM

Q: What about the “Predicted Hepatic Clearance (Pred. Cl.)” value [2] of the same molecule?
A: 6 mL/min/kg

Q: With N#Cc1ccc(COc2cccc(-c3ccc(Cc4nc5ccc(C(=O)O)cc5n4C4(CF)CC4)c(F)c3)n2)c(F)c1 [Example 381, 2-(4-(6-((4-cyano-2-fluorobenzyl)oxy)pyridin-2-yl)-2-fluorobenzyl)-1-(1-(fluoromethyl)cyclopropyl)-1H-benzo[d]imidazole-6-carboxylic acid] as the molecule, how does the EC50 [1] read?
A: 7.43 nM

Q: And the “Predicted Hepatic Clearance (Pred. Cl.)” value [2]?
A: <1.83 mL/min/kg

Q: With COCCn1c(Cc2cc(F)c(-c3cccc(OCc4ccc(C#N)cc4F)n3)cc2F)nc2ccc(C(=O)O)nc21 [Example 208, 2-(4-(6-((4-cyano-2-fluorobenzyl)oxy)pyridin-2-yl)-2,5-difluorobenzyl)-3-(2-methoxyethyl)-3H-imidazo[4,5-b]pyridine-5-carboxylic acid] as the molecule, how does the EC50 [1] read?
A: 4.67 nM

Q: And the “Predicted Hepatic Clearance (Pred. Cl.)” value [2]?
A: 3.83 mL/min/kg

Q: With N#Cc1ccc(COc2cccc(-c3cc(F)c(Cc4nc5ccc(C(=O)O)cc5n4[C@H]4CCC[C@@]45CCCO5)cc3F)n2)c(F)c1 [Example 710] as the molecule, how does the EC50 [1] read?
A: 1.45 nM

Q: And the “Predicted Hepatic Clearance (Pred. Cl.)” value [2]?
A: 11 mL/min/kg

Q: For COC[C@H]1C[C@H](n2c(Cc3cc(F)c(-c4cccc(OCc5ccc(C#N)cc5F)n4)cc3F)nc3ccc(C(=O)O)cc32)C1 [Example 731], which EC50 [1] is on record?
A: 290 nM

Q: And the “Predicted Hepatic Clearance (Pred. Cl.)” value [2]?
A: 10.3 mL/min/kg
